This note sets out measurements from ChEMBL document CHEMBL3872276, “Antiproliferative activity and SARs of caffeic acid esters with mono-substituted phenylethanols moiety” (Bioorg Med Chem Lett, 2017).

Assay [1] in a line: cells. The following applies: Homo sapiens, DU-145, 48 h.
A short description of assay [2]: cells. The note with it: Homo sapiens, ECa-109, 48 h.
Assay [3] in a line: cells. The note with it: Homo sapiens, HeLa, 48 h.
The nature of assay [4]: cells. The following applies: Homo sapiens, MCF7, 48 h.

Structures are written as SMILES.

Take `COc1ccccc1CCOC(=O)/C=C/c1ccc(O)c(O)c1`: the IC50 (commonly the concentration at which inhibition is half-maximal) in “cells [1]” amounted to 2 µM; in the assay “cells [2]”, 5.9 µM; in “cells [3]” it was 1.6 µM; in “cells [4]” it was 7.1 µM.

With `O=C(/C=C/c1ccc(O)c(O)c1)OCCc1ccccc1` [CAFFEIC ACID PHENETHYL ESTER], the IC50 in the assay “cells [1]” is 16 µM; in the assay “cells [2]”, 47.5 µM; in the assay “cells [3]”, 33 µM; in “cells [4]”, 28.8 µM.

Consider `Cc1ccc(CCOC(=O)/C=C/c2ccc(O)c(O)c2)cc1`, for which the IC50 is 36.9 µM in “cells [1]”, 20.9 µM in the assay “cells [2]”, 25.8 µM in the assay “cells [3]” and 20.6 µM in the assay “cells [4]”.

Turning to `O=C(/C=C/c1ccc(O)c(O)c1)OCCc1ccc(F)cc1`, the IC50 stood at 12.8 µM in “cells [1]”, 51.9 µM in the assay “cells [2]”, 35.8 µM in the assay “cells [3]” and 29.9 µM in the assay “cells [4]”.

In the case of `CCc1ccccc1CCOC(=O)/C=C/c1ccc(O)c(O)c1`, the IC50 in the assay “cells [1]” came out at 4.7 µM; in “cells [2]”, 7.3 µM; in “cells [3]”, 4.2 µM; in the assay “cells [4]”, 8.7 µM.

`O=C(/C=C/c1ccc(O)c(O)c1)OCCc1ccc(Br)cc1`: the IC50 in “cells [1]” is 35.4 µM; in “cells [2]” it was 40.3 µM; in “cells [3]”, 56.8 µM; in “cells [4]”, 28.2 µM.

As to `COc1ccc(CCOC(=O)/C=C/c2ccc(O)c(O)c2)cc1`, the IC50 turned out to be 67.5 µM in “cells [1]”, 111 µM in the assay “cells [2]”, 67.7 µM in the assay “cells [3]” and 78 µM in “cells [4]”.

As for `Cc1ccccc1CCOC(=O)/C=C/c1ccc(O)c(O)c1`, the IC50 in the assay “cells [1]” is 6.6 µM; in the assay “cells [2]”, 8.2 µM; in “cells [3]” it was 2.3 µM; in the assay “cells [4]” it was 2.5 µM.

In the case of `CC(C)Oc1ccccc1CCOC(=O)/C=C/c1ccc(O)c(O)c1`, the IC50 is 9.1 µM in the assay “cells [1]”, 15.1 µM in “cells [2]”, 3.2 µM in “cells [3]” and 5.6 µM in “cells [4]”.

Regarding `CC(=O)O[C@H]1C(=O)[C@@]2(C)[C@H]([C@H](OC(=O)c3ccccc3)[C@]3(O)C[C@H](OC(=O)[C@H](O)[C@@H](NC(=O)c4ccccc4)c4ccccc4)C(C)=C1C3(C)C)[C@]1(OC(C)=O)CO[C@@H]1C[C@@H]2O` [PACLITAXEL], the IC50 in “cells [1]” was found to be 0.011 µM; in the assay “cells [2]” it was 0.94 µM; in “cells [3]”, 0.036 µM; in the assay “cells [4]”, 0.63 µM.

In the case of `O=C(/C=C/c1ccc(O)c(O)c1)OCCc1ccc(Cl)cc1`, the IC50 in “cells [1]” is 22.1 µM; in the assay “cells [2]”, 28.4 µM; in the assay “cells [3]”, 22.5 µM; in “cells [4]” it was 17.6 µM.

`O=C(/C=C/c1ccc(O)c(O)c1)OCCc1ccc(O)cc1` [TYROSOL CAFFEATE]: the IC50 in the assay “cells [1]” was 51.9 µM; in the assay “cells [2]”, 49.4 µM; in the assay “cells [3]”, 45.8 µM; in the assay “cells [4]”, 53.2 µM.

On to `Cc1cccc(CCOC(=O)/C=C/c2ccc(O)c(O)c2)c1`, for which the IC50 in “cells [1]” stood at 21.4 µM; in the assay “cells [2]”, 16.7 µM; in “cells [3]”, 5.4 µM; in “cells [4]” it was 26.3 µM.

As to `O=C(/C=C/c1ccc(O)c(O)c1)OCCc1ccccc1O`, the IC50 was 24.4 µM in the assay “cells [1]”, 40.2 µM in “cells [2]”, 29.4 µM in the assay “cells [3]” and 21.8 µM in the assay “cells [4]”.
